# In patent US20240190891A1, “PYRIDO OXAZINE AMINO DERIVATIVES AS ALK5 INHIBITORS” (CHIESI FARMACEUTICI S.P.A., priority 2020, published 2024):
# pIC50: −log10 of the molar value.
# Target: T1, human ALK5 (Homo sapiens, UniProt P36897)
# T1 construct: human ALK5 (recombinant TGF β1 N-term GST-tagged, 80-end); GST (N); purchased
# T1 sequence (P36897 80-503 limits assumed): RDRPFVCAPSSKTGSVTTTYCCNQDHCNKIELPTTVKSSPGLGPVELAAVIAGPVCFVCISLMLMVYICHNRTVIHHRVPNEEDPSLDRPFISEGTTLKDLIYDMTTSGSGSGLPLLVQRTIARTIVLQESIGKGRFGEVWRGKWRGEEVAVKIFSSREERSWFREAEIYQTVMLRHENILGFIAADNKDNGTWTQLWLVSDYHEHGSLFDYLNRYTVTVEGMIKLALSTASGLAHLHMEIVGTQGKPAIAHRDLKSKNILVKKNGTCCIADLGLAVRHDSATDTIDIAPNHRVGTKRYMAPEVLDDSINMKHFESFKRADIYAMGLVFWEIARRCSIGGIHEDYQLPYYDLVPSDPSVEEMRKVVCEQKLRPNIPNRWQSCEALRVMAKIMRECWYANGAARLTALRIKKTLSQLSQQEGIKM
# Test: ADP-GLO Kinases assay, inhibitory activity on ALK5
# Format: biochemical
# Conditions: Table 10; purified recombinant human ALK5 2.6 nM, ADP-Glo, 25° C., 150 min incubation
# Protocol: The enzymatic activity of compounds of the present invention was monitored measuring the formation of ADP using the ADP-GLO Kinases assay. Following the incubation of the purified enzyme, a substrate and ATP, the produced ADP was converted into ATP, which in turn was converted into light by Ultra-Glo Luciferase. The luminescent signal positively correlated with ADP amount and kinase activity. Briefly, the kinase reaction was performed by incubating 2.6 nM of the purified, commercially available human ALK5 (recombinant TGF β1 N-term GST-tagged, 80-end), a final concentration of TGFβ1 peptide 94.5 μM (Promega, T36-58) and ultra-pure ATP (Promega V915B). The ATP concentration was set at the Km value (concentration of substrate which permits the enzyme to achieve half maximal velocity (Vmax)) of ALK5 (5 μM). All reactions/incubations were performed at 25° C. Compound and ALK5 kinase were mixed and incubated for 15 mins. Reactions were initiated by addition of ATP at a final concentration in the assay of 0.83 μM. After an incubation of 150 min, the reaction was stopped, and ADP production detected with ADP-Glo kit according to manufacturer's indications. The assay was performed in 384-well format and was validated using a selection of reference compounds that was tested in 11 point concentration-response curve.
# Compounds of the examples C1, C2 and C3 were tested in the same in vitro assay described above.
row,Compound,pIC50
1,"Fc1ccc(Cl)cc1-c1cc(Nc2ccnc3[nH]ccc23)c2c(n1)NCCO2 [Example 31, 6-(5-chloro-2-fluorophenyl)-N-{1H-pyrrolo[2,3-b]pyridin-4-yl}-2H,3H,4H-pyrido[3,2-b][1,4]oxazin-8-amine]",> 9.00
2,"Cc1cccc(-c2cc(Nc3ccnc4[nH]cnc34)c3c(n2)NCCO3)n1 [Example 40, N-{3H-imidazo[4,5-b]pyridin-7-yl}-6-(6-methylpyridin-2-yl)-2H,3H,4H-pyrido[3,2-b][1,4]oxazin-8-amine]",> 9.00
3,"CNC(=O)c1cc(Nc2cc(-c3cc(Cl)ccc3F)nc3c2OCCN3)ccn1 [Example 6, 4-{[6-(5-chloro-2-fluorophenyl)-2H,3H,4H-pyrido[3,2-b][1,4]oxazin-8-yl]amino}-N-methylpyridine-2-carboxamide]",8.00 to 8.30
4,"Fc1ccc(Cl)cc1-c1cc(Nc2ccnc3[nH]cnc23)c2c(n1)NCCO2 [Example 35, 6-(5-chloro-2-fluorophenyl)-N-{3H-imidazo[4,5-b]pyridin-7-yl}-2H,3H,4H-pyrido[3,2-b][1,4]oxazin-8-amine]",> 9.00
5,"Cc1cccc(-c2cc(Nc3ccncc3)c3c(n2)NCCO3)c1 [Example 18, N-[6-(3-methylphenyl)-2H,3H,4H-pyrido[3,2-b][1,4]oxazin-8-yl]pyridin-4-amine]",8.30 to 9.00
6,"Clc1cccc(-c2cc(Nc3ccncc3)c3c(n2)NCCO3)c1 [Example 15, N-[6-(3-chlorophenyl)-2H,3H,4H-pyrido[3,2-b][1,4]oxazin-8-yl]pyridin-4-amine]",8.30 to 9.00
7,"COC(=O)c1c[nH]c2nccc(Nc3cc(-c4cc(Cl)ccc4F)nc4c3OCCN4)c12 [Example 36, methyl 4-{[6-(5-chloro-2-fluorophenyl)-2H,3H,4H-pyrido[3,2-b][1,4]oxazin-8-yl]amino}-1H-pyrrolo[2,3-b]pyridine-3-carboxylate]",> 9.00
8,"Fc1ccccc1-c1cc(Nc2ccncc2)c2c(n1)NCCO2 [Example 11, N-[6-(2-fluorophenyl)-2H,3H,4H-pyrido[3,2-b][1,4]oxazin-8-yl]pyridin-4-amine]",8.30 to 9.00

# Continued, values first:
row,pIC50,Compound
1,> 9.00,"O=C(NCCN1CCNCC1)c1cnccc1Nc1cc(-c2cc(Cl)ccc2F)nc2c1OCCN2 [Example 12, 4-{[6-(5-chloro-2-fluorophenyl)-2H,3H,4H-pyrido[3,2-b][1,4]oxazin-8-yl]amino}-N-[2-(piperazin-1-yl)ethyl]pyridine-3-carboxamide]"
2,8.30 to 9.00,"CS(=O)(=O)N1CCN(CCNC(=O)c2cnccc2Nc2cc(-c3cc(Cl)ccc3F)nc3c2OCCN3)CC1 [Example 46, 4-{[6-(5-chloro-2-fluorophenyl)-2H,3H,4H-pyrido[3,2-b][1,4]oxazin-8-yl]amino}-N-[2-(4-methanesulfonylpiperazin-1-yl)ethyl]pyridine-3-carboxamide]"
3,> 9.00,"O=C(NC1CC1)c1cnccc1Nc1cc(-c2cc(Cl)ccc2F)nc2c1OCCN2 [Example 23, 4-{[6-(5-chloro-2-fluorophenyl)-2H,3H,4H-pyrido[3,2-b][1,4]oxazin-8-yl]amino}-N-cyclopropylpyridine-3-carboxamide]"
4,> 9.00,"CN1CCN(CCOC(=O)c2cnccc2Nc2cc(-c3cc(Cl)ccc3F)nc3c2OCCN3)CC1 [Example 29, 2-(4-methylpiperazin-1-yl)ethyl 4-{[6-(5-chloro-2-fluorophenyl)-2H,3H,4H-pyrido[3,2-b][1,4]oxazin-8-yl]amino}pyridine-3-carboxylate]"
5,8.30 to 9.00,"CN1CCN(CCNC(=O)c2cnccc2Nc2cc(-c3cc(Cl)ccc3F)nc3c2OCCN3)CC1 [Example 28, 4-{[6-(5-chloro-2-fluorophenyl)-2H,3H,4H-pyrido[3,2-b][1,4]oxazin-8-yl]amino}-N-[2-(4-methylpiperazin-1-yl)ethyl]pyridine-3-carboxamide]"
6,8.30 to 9.00,"CC(=O)N1CCN(CCNC(=O)c2cnccc2Nc2cc(-c3cc(Cl)ccc3F)nc3c2OCCN3)CC1 [Example 47, N-[2-(4-acetylpiperazin-1-yl)ethyl]-4-{[6-(5-chloro-2-fluorophenyl)-2H,3H,4H-pyrido[3,2-b][1,4]oxazin-8-yl]amino}pyridine-3-carboxamide]"
